Assay results taken from patent US20260248787A9, “MEDICAMENT FOR TREATING CANCER COMPRISING OPTICALLY ACTIVE AZABICYCLO RING DERIVATIVE” (Sumitomo Pharma Co., Ltd., priority 2023, published 2026).

Test system: MOLM-13 cells
Assay: Tumor-bearing mice transplanted with MOLM-13 cells, with gilteritinib, T/C (Example 12)
Type: in vivo
Settings: MOLM-13 tumor-bearing mice; oral; 30 mg/kg; 18 days
Experimental: The antitumor effects of the present compound and gilteritinib were evaluated. The present compound was weighed and dissolved in 0.5 w/v % Methyl Cellulose 400 solution to give the compound concentrations of 20 mg/mL and 10 mg/mL. Gilteritinib was weighed and suspended in 0.5 w/v % Methyl Cellulose 400 solution to give the compound concentrations of 3 mg/mL.
MOLM-13 cells (DSMZ) were intradermally implanted around the ventral region of 5-week old NOD. CB17-PrkdcSCID/J mice (female, The Jackson Laboratory Japan) at 1×10^6 cells/mouse. After confirming the engraftment of MOLM-13 cells 6 days after the transplantation, the present compound was orally administered to the mice at a dose of 100 mg/kg or 200 mg/kg, and gilteritinib was orally administered to the mice at a dose of 30 mg/kg, once a day for 18 days. The tumor volume was measured over time from the start of the administration, and the reduction effect of the tumor volume due to the compound-administration was evaluated. The tumor volume was calculated by the following formula using short axis and long axis of the tumor measured with an electronic caliper (Mitutoyo).
The control administration group in which only the solvent was administered and the test substance administration group were compared, and T/C was calculated using the following formula to evaluate the antitumor effect.

For CCc1nc(C(N)=O)c(Nc2ccc(N3CCC(N4CCN(C)CC4)CC3)c(OC)c2)nc1NC1CCOCC1 [gilteritinib, reference compound], the T/C was 5.3%.
